According to patent publication US20260325504A1, “Genetically Engineered Human Pituitary Corticotroph Tumor Organoids Exhibit Divergent Responses to Selective Glucocorticoid Receptor Modulators” (Corcept Therapeutics Incorporated, priority 2022, published 2026):
“Also recorded” adds a separate entry of the source.

Key:
[1] = system: hPITO; experiment: Spectral flow cytometry, Zombie positive cells (cell death), hPITOs; type: cell-based, human; settings: 48 h, FIGS. 9K, L
From the text: (§1) 1.3 Generation and Culture of Human PitNET Tissue Organoids (hPITOs)
(§2) Patients undergoing planned transsphenoidal surgery for PitNETs were identified in the outpatient neuroendocrinology and neurosurgery clinics and collected by the St. Joseph's Hospital and Barrow Neurological Institute Biobank under the collection protocol PHXA-05TS038, and outcomes data protocol PHXA-0004-72-29 with approval of the Institutional Review Board (IRB) and patient consent. De-identified samples were shipped in collection and transport media (Table 3) to the Zavros laboratory (University of Arizona) for processing within 24 hours of collection. Resected PitNET tissues were washed with Dulbeccos Phosphate Buffered Saline (DPBS) supplemented with 1× Penicillin/Streptomycin, 1× Kanamycin and 1× Amphotericin/Gentamycin, minced into smaller pieces, and incubated with digestion buffer (Dulbecco's Modified Eagle Medium/Nutrient Mixture F-12 (DMEM/F12) supplemented with 0.4% Collagenase 2, 0.1% Hyaluronic Acid, 0.03% Trypsin). The tissue was incubated with Accutase (Thermo Fisher Scientific) for a further 5 minutes, and the cells were pelleted and washed with DPBS supplemented with antibiotics. Dissociated cells were then seeded as Matrigel™ domes in culture dishes and overlaid with growth media (Table 4). Media was replaced every 3 days and organoids were harvested for downstream experiments or passaged after 15 days of culture (FIG. 1B).
(§3) Sonic Hedgehog (SHH) was withdrawn from the organoid growth media 16 hours prior to treatment. The experimental treatment groups included: vehicle (Veh), mifepristone (500 nM, Selleckchem S2606), GANT61 (5 μM, Stemcell Technologies 73692), ketoconazole (Keto, 10 μM, Selleckchem S1353), pasireotide (Pas, 100 nM, Target Mol TP2207-SB001), octreotide (Oct, 100 nM, Selleckchem P1017), mifepristone plus GANT61, mifepristone plus Keto, mifepristone plus Pas, relacorilant (500 nM, Corcept Therapeutics CORT125134), relacorilant plus Pas, relacorilant plus Oct, or dexamethasone (Dexa, 100 nM, SIGMA S4902). In the combination treatments, cultures were pretreated with the GANT61, Keto, Pas or Oct for 2 hours prior to treatment with mifepristone or Rela. PitNET tissue derived organoids hPITO36, hPITO37, hPITO38, hPITO39, and hPITO40 were treated with the following experimental conditions: Vehicle (1), pasireotide (2), relacorilant (3), relacorilant & pasireotide (4), mifepristone (5), mifepristone & pasireotide (6). The IC50 values used for each hPITO line for each drug were determined based on dose responses (FIG. 12). All organoid cultures were treated for 48 hours prior to analysis.
The multicolor flow cytometry antibody panel was designed using the Cytek® Full Spectrum Viewer online tool to calculate the similarity index. Organoids were harvested in cold Serum-Free Defined Medium media and incubated with Zombie (BioLegend 423107, 1:100) for 15 minutes in the dark at room temperature, followed by incubation with fluorochrome-conjugated/unconjugated primary surface or cytoplasmic antibodies (Table 6) at 4° C. for 30 minutes. Cells were then washed with Cell Staining Buffer (BioLegend 420-201) and incubated at 4° C. for 30 minutes with secondary antibodies (Table 6). Cells were fixed using Cytofix/Cytoperm™ Fixation/Permeabilization Solution (BD Biosciences 554714) and washed with Fixation/Permeabilization wash buffer according to the recommended protocol. […]

[2] = system: progesterone receptor; settings: cited from earlier work
[3] = system: PitNET organoids; experiment: ACTH secretion from PitNET (summary); type: cell-based, human
Protocol: as §3, with “PitNET tissue derived organoids hPITO36, hPITO37, hPITO38, hPITO39, and hPITO40 were treated with the following experimental conditions: Vehicle (1), pasireotide (2), relacorilant (3), relacorilant & pasireotide (4), mifepristone (5), mifepristone & pasireotide (6).” left out, “All organoid cultures were treated for 48 hours prior to analysis.” left out
Organoid conditioned media was collected and ACTH secretion using an ELISA according to the manufacturer's protocol (Novus Biologicals Human ACTH ELISA Kit NBP2-66401). The optical density was measured at a wavelength of 450 nm, and ACTH concentration (pg/mL) was interpolated using a standard curve with a 4-parameter logistic regression analysis using GraphPad Prism (v9.3.1).

[4] = system: SSTR5; experiment: Spectral flow cytometry, SSTR5 positive cells, hPITOs; type: cell-based, human; settings: hPITO, 48 h, FIGS. 9G
From the text: as §1, §2
(§4) Sonic Hedgehog (SHH) was withdrawn from the organoid growth media 16 hours prior to treatment. […] The IC50 values used for each hPITO line for each drug were determined based on dose responses (FIG. 12). […]

[5] = system: iPSC^USP48MV organoids; experiment: Nuclear morphometric analysis (nuclear irregularity index), iPSCUSP48MV organoids; type: cell-based, human; settings: 500 nM, 48 h
Protocol: (§5) Nuclear Morphometric Analysis (NMA) using treated organoids was performed based on a published protocol that measures cell viability based on the changes in nuclear morphology of the cells using nuclear stain Hoechst or DAPI [31]. Images of organoid nuclei were analyzed using the ImageJ Nuclear Irregularity Index (NII) plugin for key parameters that included cell area, radius ratio, area box, aspect, and roundness. Using the published spreadsheet template, the NII of each cell was calculated with the following formula: NII=Aspect−Area Box+Radius Ratio+Roundness. The area vs NII of vehicle-treated cells were plotted as a scatter plot using the template and considered as the normal cell nuclei. […] The percentage of cells in each NII classification category were calculated and plotted as a histogram using GraphPad Prism.
as §4

[6] = system: iPSC^ctrl organoids; experiment: Nuclear morphometric analysis (nuclear irregularity index), iPSCctrl organoids; type: cell-based, human; settings: 500 nM, 48 h
Protocol: as §5, §4

Row | SMILES | cell death (Zombie positive cells) [1] | cell death in epithelial/mesenchymal hybrid cell population (CK20, vimentin, CXCR4) [1] | cell death in populations expressing stem cell markers SOX2, CXCR4 and nestin [1] | cell death (Zombie positive cells) ([1]; listed as Relacorilant) | binding to the progesterone receptor [2] | ACTH secretion from PitNET organoids [3] | magnitude of SSTR5 induction, relacorilant vs mifepristone [4] | percentage of SSTR5 positive cells [4] | apoptotic cells by nuclear irregularity index (NII) [5] | apoptotic cells by nuclear irregularity index (NII) [6]
1 | Cn1cc(S(=O)(=O)N2CCC3=Cc4c(cnn4-c4ccc(F)cc4)C[C@]3(C(=O)c3cc(C(F)(F)F)ccn3)C2)cn1 [relacorilant, (R)-(1-(4-fluorophenyl)-6-((1-methyl-1H-pyrazol-4-yl)sulfonyl)-4,4a,5,6,7,8-hexahydro-1H-pyrazolo[3,4-g]isoquinolin-4a-yl) (4-(trifluoromethyl)pyridin-2-yl) methanone] | significant increase in cell death | significant cell death | significant cell death | Induces Tumor Cell Death; also recorded: significant increase in Zombie positive cells | no detectable binding | without significant stimulation of ACTH secretion; also recorded: without an increase in ACTH secretion | significantly greater than that of mifepristone | significant increase; also recorded: significantly upregulated | significant expression pattern of nuclear morphology consistent with increased apoptotic cells; also recorded: consistent with increased apoptosis cells | not observed
2 | CC#C[C@]1(O)CC[C@H]2[C@@H]3CCC4=CC(=O)CCC4=C3[C@@H](c3ccc(N(C)C)cc3)C[C@@]21C [mifepristone, 11β-(4-dimethylaminophenyl)-17ß-hydroxy-17α-(1-propynyl)-estra-4,9-dien-3-one] | not observed | – | – | – | binding to the progesterone receptor | preferentially induced the expression of SSTR2, ACTH secretion and PitNET organoid proliferation; also recorded: significantly increased ACTH secretion from PitNET both in vivo and in vitro | – | significant increase | not observed; also recorded: induces apoptosis in neither the tumor organoid iPSC^USP48MV nor the control organoid iPSC^ctrl | not observed; also recorded: induces apoptosis in neither the tumor organoid iPSC^USP48MV nor the control organoid iPSC^ctrl
